Measured values from ChEMBL document CHEMBL3865786, “Scaffold-hopping of bioactive flavonoids: Discovery of aryl-pyridopyrimidinones as potent anticancer agents that inhibit catalytic role of topoisomerase IIα” (Eur J Med Chem, 2016).
Activity calls are given as the source filed them. The calls are words filed in the database; no cut-off is given here.

Experiments:
[1] = (§1) Cytotoxicity against HEK293 cells assessed as reduction in cell viability after 48 hrs by MTT assay; assay type: functional; conditions: Homo sapiens, HEK293, 48 h; read-out: LC50 (the source's name)
[2] = Cytotoxicity against African green monkey Vero cells assessed as reduction in cell viability after 48 hrs by MTT assay; assay type: toxicity, cell-based; conditions: chlorocebus sabaeus; for CC50 at 48 h: Vero cells, read-out: LC50
[3] = biological target: DNA topoisomerase 2-alpha (Homo sapiens) (UniProt P11388); experiment: Inhibition of human DNA topoisomerase 2alpha-mediated decatenation of kinetoplast DNA at 100 uM after 30 mins by agarose gel electrophoresis
DNA topoisomerase 2-alpha (Homo sapiens), sequence (P11388 whole entry): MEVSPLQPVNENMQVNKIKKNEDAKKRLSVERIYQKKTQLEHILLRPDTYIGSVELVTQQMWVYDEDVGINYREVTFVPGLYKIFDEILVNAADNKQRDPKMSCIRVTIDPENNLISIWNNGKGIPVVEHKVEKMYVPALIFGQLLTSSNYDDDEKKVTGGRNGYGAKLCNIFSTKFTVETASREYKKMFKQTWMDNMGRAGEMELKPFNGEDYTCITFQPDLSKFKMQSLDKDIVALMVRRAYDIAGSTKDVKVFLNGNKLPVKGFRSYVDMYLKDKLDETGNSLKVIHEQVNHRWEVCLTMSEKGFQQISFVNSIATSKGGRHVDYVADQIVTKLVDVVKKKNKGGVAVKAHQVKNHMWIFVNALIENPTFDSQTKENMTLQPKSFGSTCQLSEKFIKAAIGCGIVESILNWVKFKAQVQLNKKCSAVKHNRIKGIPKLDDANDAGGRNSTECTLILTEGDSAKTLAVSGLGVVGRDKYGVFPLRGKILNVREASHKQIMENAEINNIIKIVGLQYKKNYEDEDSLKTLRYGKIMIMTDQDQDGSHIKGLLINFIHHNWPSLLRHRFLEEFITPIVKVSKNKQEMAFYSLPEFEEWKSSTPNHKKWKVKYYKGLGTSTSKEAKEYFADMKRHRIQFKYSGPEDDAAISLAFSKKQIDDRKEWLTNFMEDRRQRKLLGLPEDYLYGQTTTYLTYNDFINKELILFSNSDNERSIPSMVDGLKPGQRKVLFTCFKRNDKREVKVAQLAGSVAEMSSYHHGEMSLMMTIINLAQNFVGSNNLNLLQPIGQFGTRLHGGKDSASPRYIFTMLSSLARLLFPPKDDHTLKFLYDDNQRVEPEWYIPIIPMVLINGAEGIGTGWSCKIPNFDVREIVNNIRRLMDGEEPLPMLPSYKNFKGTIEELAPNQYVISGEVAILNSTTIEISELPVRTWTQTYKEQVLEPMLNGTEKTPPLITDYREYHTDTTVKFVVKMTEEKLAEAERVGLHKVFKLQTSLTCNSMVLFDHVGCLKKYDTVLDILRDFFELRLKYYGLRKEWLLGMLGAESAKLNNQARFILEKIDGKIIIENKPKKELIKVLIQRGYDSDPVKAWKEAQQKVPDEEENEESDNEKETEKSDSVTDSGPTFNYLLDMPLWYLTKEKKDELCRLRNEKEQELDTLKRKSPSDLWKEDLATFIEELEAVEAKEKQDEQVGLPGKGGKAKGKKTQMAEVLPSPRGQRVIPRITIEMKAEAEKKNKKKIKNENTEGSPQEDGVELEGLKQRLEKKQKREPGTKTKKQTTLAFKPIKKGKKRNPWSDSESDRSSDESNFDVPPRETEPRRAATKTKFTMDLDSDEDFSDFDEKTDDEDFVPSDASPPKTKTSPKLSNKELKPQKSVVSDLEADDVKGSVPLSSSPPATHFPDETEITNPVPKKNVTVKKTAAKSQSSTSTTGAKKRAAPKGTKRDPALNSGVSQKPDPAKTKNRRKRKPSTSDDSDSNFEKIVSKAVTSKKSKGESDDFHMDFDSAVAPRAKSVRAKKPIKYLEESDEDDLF

[4] = (§2) Anticlonogenic activity against HEK293 cells assessed as inhibition of colony formation incubated for 48 hrs measured after 6 days by crystal violet staining based assay; assay type: functional; conditions: Homo sapiens, read-out: LC50 (the source's name)
[5] = Cytotoxicity against human H357 cells assessed as reduction in cell viability after 48 hrs by MTT assay; assay type: functional, cell-based; conditions: H357, 48 h
[6] = Cytotoxicity against human HCT116 cells assessed as reduction in cell viability after 48 hrs by MTT assay; assay type: functional, cell-based; conditions: HCT-116, 48 h
HEK293 [7] = experiment: as §1; assay type: functional; conditions: Homo sapiens
[8] = Cytotoxicity against human HeLa cells assessed as reduction in cell viability after 48 hrs by MTT assay; assay type: functional, cell-based
[9] = Cytotoxicity against human MCF7 cells assessed as reduction in cell viability after 48 hrs by MTT assay; assay type: functional, cell-based; conditions: MCF7, 48 h
HEK293 [10] = experiment: as §2; assay type: functional; conditions: Homo sapiens
HEK293 [11] = experiment: Potency index, ratio of etoposide LC50 to compound LC50 for anticlonogenic activity in HEK293 cells; assay type: functional, Homo sapiens
[12] = Cytotoxicity against human A549 cells assessed as reduction in cell viability after 48 hrs by MTT assay; assay type: functional, cell-based; conditions: A549, 48 h
Bos taurus = species on record: Bos taurus; experiment: Binding affinity to calf thymus DNA assessed as DNA intercalation by measuring conformational changes at 100 uM after 2 hrs by CD spectroscopic analysis
[13] = Binding affinity to DNA (unknown origin) assessed as hypochromism after 1 hr by UV-Vis absorption spectrophotometric analysis

Row | SMILES | CC50 [1] [µM] | CC50 at 48 h [2] [µM] | Topoisomerase 2-alpha inhibition (active/inactive) [3] | also measured
1 | Cc1ccc(-c2coc3ccccc3c2=O)cc1 | 8 | 48 | Active | –
2 | COc1ccc(-c2cc(=O)c3ccccc3o2)cc1 [4'-METHOXYFLAVONE] | 8.5 | 45 | Active | –
3 | O=c1c(-c2ccc3c(c2)OCO3)cnc2ccccn12 | 15 | 48 | Active | –
4 | COc1cc([C@@H]2c3cc4c(cc3[C@@H](O[C@@H]3O[C@@H]5CO[C@@H](C)O[C@H]5[C@H](O)[C@H]3O)[C@H]3COC(=O)[C@H]23)OCO4)cc(OC)c1O [ETOPOSIDE] | 22 | 55 | Active | CC50 [4]: 20 µM
5 | COc1cc(-c2cnc3ccccn3c2=O)cc(OC)c1OC | 3 | 40 | Active | IC50 [5]: 3 µM; IC50 [6]: 3.2 µM; Activity (HEK293 [7]): Dose-dependent effect; Activity ([2]; vero, 48 h): Dose-dependent effect; IC50 [8]: 2.8 µM; IC50 [9]: 3 µM; CC50 [4]: 1.8 µM; inhibition (HEK293 [10]): Dose-dependent effect; RatioLC50 (HEK293 [11]): 5 - 10; IC50 [12]: 2.1 µM
6 | O=c1cc(-c2ccc3c(c2)OCO3)oc2ccccc12 | 8 | 48 | Active | –
7 | COc1ccc(-c2coc3ccccc3c2=O)cc1 | 12 | 52 | – | –
8 | CC[n+]1c(-c2ccccc2)c2cc(N)ccc2c2ccc(N)cc21 | – | – | – | Activity (Bos taurus): Active
9 | COc1cc(-c2cc(=O)c3ccccc3o2)cc(OC)c1OC | 12 | 52 | Active | –
10 | COc1ccc(-c2cc(=O)n3ccccc3n2)cc1OC | 17 | 50 | Active | –
11 | O=c1c(-c2cccc3ccccc23)cnc2ccccn12 | 7 | 60 | Active | –
12 | COc1cc(-c2cc(=O)n3ccccc3n2)cc(OC)c1OC | 9 | 46 | Active | Activity [13]: Active
13 | COc1ccc(-c2cc(=O)n3ccccc3n2)cc1 | 8 | 60 | Active | –
